Experimental data from patent publication US4192889A, “Ruminant feeds containing trichloroethyl esters of essential amino acids” (E. R. Squibb & Sons, Inc., priority 1979, dated 1980).

Columns and labels:
[1] = tested on: volatile fatty acid concentrations in the in vitro rumen fermentation; experiment: in vitro rumen fermentation, volatile fatty acids (alfalfa hay:concentrate 3:1); design: species or system sheep; details: for Acetic / Acetic Propionic (ratio) / Propionic / Total Acids / butyric: Table 10, 0.2 mg/ml
Text: Based on the knowledge of the foregoing, a practical method of testing growth promoters in vitro has been the simulation of conditions in the rumen with fermentation reactions. Such a method comprises adding the test substance to a substrate such as ground hay, corn or mixtures of feed materials. Rumen fluid from a fasted ruminant (bovine, ovine, or caprine) is mixed with a buffer solution and added to a fermentation flask containing the test additive and the substrate. The flask is purged of oxygen, stoppered with a pressure release valve, and incubated at 39°±1° C. for periods up to 48 hours. The change in volatile fatty acid concentration is determined by chemical analysis of the rumen fluid before and after fermentation. As a control, the above experiment is run without a test additive.
(§1) A one gram sample of substrate ground through a 1 mm screen is weighted into 100 ml. lipless beakers equipped with gas-release valves. The substrate consists of alfalfa hay containing approximately 16% protein and a concentrate containing ground corn 60.7%, alfalfa meal 17.5%, molasses 10.0%, soybean meal 5.3%, wheat bran 5.0%, trace mineralized salt 1.0%, limestone 0.5% and Vitamin D 300,000 I.U./ton, mixed in the proportion 3:1. The experimental composition is added to the substrate. 25 ml. of filtered rumen fluid obtained from fasted sheep maintained on feed the same as the above mentioned substrate and 25 ml. of McDougal's buffer solution serve as the inoculum. The buffer solution is as follows:
(§2) The fermentation mixture is flushed with carbon dioxide and the vessel is capped with a gas release valve. The fermentation vessel (beaker) is placed in a water bath and incubated at 39° C.±1° for six hours. The sample is mixed every hour by shaking the beaker.
(§3) At the end of the 6-hour fermentation period the sample is strained through 4 layers of cheesecloth into a sample bottle containing 1 ml. saturated solution of mercuric chloride. The sample is frozen immediately until analyzed for the volatile fatty acids (VFA) (mg/100 ml.). Prior to analysis, each sample is acidified with 30% phosphoric acid and then analyzed by gas chromatography using a column containing 5% nonylphenoxypolyoxyethylene ethanol plus 0.5% phosphoric acid on 100-120 mesh Gas Chrom S. The acids determined are acetic, propionic, butyric, isobutyric, valeric and isovaleric acids. Total VFA is considered as the addition of these acids. The ratio of acetic:propionic (A:P) is obtained by dividing the concentration of acetic acid by that of propionic acid.
The effect of various compounds alone on the volatile fatty acid concentrations was determined by the procedure of Example 3. […] A direct comparison between phenylalanine and phenylalanine trichloroethyl ester is provided.

[2] = tested on: volatile fatty acid concentrations in the in vitro rumen fermentation; experiment: in vitro rumen fermentation, volatile fatty acids (high concentrate substrate, alfalfa hay:concentrate 1:3); design: species or system sheep
Procedure: as §1, §2, §3
The procedure is described in Example 3. In this example, however, the substrate consisted of alfalfa hay and concentrate in the ratio of 1:3 and inoculum was obtained from sheep fed alfalfa and concentrate in the ratio of 1:3. The concentrate (Fit-N-Fresh)is commercially available from Agway, Inc. and contains grain products, plant protein products, processed grain by-products, cane molasses, minerals, vitamins and a preservative.
The 2,2,2-trichloroethyl ester of glycine was tested in vitro in a manner similar to that described in Example 4.

[3] = tested on: volatile fatty acid concentrations in fistulated sheep; experiment: volatile fatty acid concentrations in vivo in sheep with rumen fistulae (227 g concentrate + 680 g alfalfa hay); design: species or system sheep (wethers); details: for acetic:propionic ratio (in words) / proportion of propionic acid (in words): fistulated sheep; for Total acids (mg/100 ml.): Table 3, treatment day 7
Text: (§4) Mature sheep (wethers) fitted with permanent rumen fistulae were used to determine the effect of L-phenylalanine, 2,2,2-trichloroethyl ester on volatile fatty acid concentrations in vivo (3 wethers per treatment). The animals were individually penned and fed 227 g. of concentrate (described in Example 3) and 680 g. of alfalfa hay once daily. The test compound was admixed with the concentrate. The sheep were medicated for 7 days. Samples for analysis were obtained before (Day 0) and after treatment (Day 7) approximately 6 hours after feeding.

[4] = body weight gain and feed efficiency of growing lambs; format: in vivo, lambs (wether and ewe)
Procedure: A test was conducted to determine if feeding L-phenylalanine 2,2,2-trichloroethyl ester to growing lambs was effective in improving growth and feed efficiency. Wether and ewe lambs were divided into groups of 30 lambs each. They were acclimated to their pens for 2 weeks prior to treatment.
The feed supplied to the animals had the following composition
The test compound in an amount of 0.0055% (50 g/ton) was admixed with the above feed composition.
Body weights and feed consumption were recorded at 0, 2, 4 and 6 weeks. Feed efficiencies were calculated.
The test procedure of Example 9 was followed to test the growth effect and feed efficiency of glycine 2,2,2-trichloroethyl ester on growing lambs. The feed composition of Example 9 was used but contained glycine 2,2,2-trichloroethyl ester in an amount of 0.0044% (40 g/ton). There were 44 lambs in the control group receiving the feed composition without additive and 42 lambs receiving the feed composition containing the amino acid ester.
The test procedure of Example 9 was followed to test the growth effect and feed efficiency of L-phenylalanine 2,2,2-trichloroethyl ester on growing lambs. The feed composition of Example 9 was used but contained 0.0088% (80 g/ton) of this amino acid ester. There were 59 lambs in the control group fed the feed without additive and 58 lambs in the group fed the feed composition containing the test compound.

[5] = tested on: volatile fatty acid concentrations in the rumen of fistulated wethers; experiment: volatile fatty acid concentrations in the rumen of fistulated wethers (454 g concentrate + 454 g chopped mixed hay); format: in vivo, sheep (wethers); details: for Total acids (mg/100 ml): Table 4, treatment day 7
Text: as §4
An experiment similar to that described in Example 5 was performed except that the animals (3 per treatment) were fed 454 g. of concentrate (described in Example 3) and 454 g. of chopped mixed (grasses) hay.

[6] = fistulated wethers, concentrate/mixed hay diet

Structure (SMILES) | Acetic [1] | Acetic Propionic (ratio) [1] | Propionic [1] | Total Acids [1] | butyric [1] | acetic:propionic ratio (in words) [2] | propionic acid concentration (in words) [2] | acetic:propionic ratio (in words) [3] | proportion of propionic acid (in words) [3] | other results
N[C@@H](Cc1ccc(Cl)cc1)C(=O)O (racemic) [p-chlorophenylalanine] | 91 % of Control | 101 % of Control | 91 % of Control | 91 % of Control | 92 % of Control | – | – | – | – | –
NCC(=O)OCC(Cl)(Cl)Cl [2,2,2-trichloroethyl ester of glycine, aminoacetic acid 2,2,2-trichloroethyl ester] | – | – | – | – | – | decreasing the acetic:propionic ratio | effective in increasing propionic acid concentration | decreasing the acetic:propionic ratio | effective in increasing the proportion of propionic acid | Total acid (mg/100 ml) ([3]; Table 6, 500 mg/head/day, treatment): 731 mg/100 ml; Weight gain ([4]; Table 8, 0.0044% (40 g/ton) in feed, 0-2 wks, control 2.32): 2.31 kg; Weight gain ([4]; Table 8, 0.0044% (40 g/ton) in feed, 0-4 wks, control 5.09): 5.13 kg; Feed efficiency gain/feed ([4]; Table 8, 0.0044% (40 g/ton) in feed, 0-6 wks, control 0.148): 0.154 gain/feed; Weight gain ([4]; Table 8, 0.0044% (40 g/ton) in feed, 0-6 wks, control 7.18): 7.37 kg
N[C@@H](Cc1ccccc1)C(=O)OCC(Cl)(Cl)Cl [L-Phenylalanine 2,2,2-trichloroethyl ester] | – | – | – | – | – | decreasing the acetic:propionic ratio | effective in increasing the propionic acid concentration | decreased the acetic:propionic ratio | increased the proportion of propionic acid | Total acids (mg/100 ml) ([5]; 200 mg/head/day): 663 mg/100 ml; Total acids (mg/100 ml) ([5]; 500 mg/head/day): 734 mg/100 ml; acetic:propionic ratio (in words) [5, 6]: decreasing the acetic:propionic ratio; proportion of propionic acid (in words) [5, 6]: effective in increasing the proportion of propionic acid; acetic to propionic acid ratio (in words) ([1]; at all levels): decreasing the acetic to propionic acid ratio; propionic acid concentrations (in words) ([1]; at all levels): effective in increasing the propionic acid concentrations; Total acids (mg/100 ml.) ([3]; 200 mg/head/day): 667 mg/100 ml.; Total acids (mg/100 ml.) ([3]; 500 mg/head/day): 624 mg/100 ml.; feed efficiency of growing lambs (in words) ([4]; 0.0055% (50 g/ton) in the feed): improving feed efficiency; gains of growing lambs (in words) ([4]; 0.0055% (50 g/ton) in the feed): effective in increasing gains; Body weight gain ([4]; Table 7, 0.0055% (50 g/ton) in feed, 0-2 wks., control 2.47): 2.97 kg; Body weight gain ([4]; Table 7, 0.0055% (50 g/ton) in feed, 0-4 wks., control 5.80): 5.82 kg; Body weight gain ([4]; Table 7, 0.0055% (50 g/ton) in feed, 0-6 wk., control 8.51): 9.08 kg; Feed efficiency (gain/unit of feed) ([4]; Table 7, 0.0055% (50 g/ton) in feed, 0-6 wks., control 0.190): 0.196 gain/unit of feed; Weight gain ([4]; Table 9, 0.0088% (80 g/ton) in feed, 0-2 wks, control 1.50): 1.49 kg; Weight gain ([4]; Table 9, 0.0088% (80 g/ton) in feed, 0-4 wks, control 4.44): 4.63 kg; Feed efficiency gain/feed ([4]; Table 9, 0.0088% (80 g/ton) in feed, 0-6 wks, control 0.160): 0.168 gain/feed; Weight gain ([4]; Table 9, 0.0088% (80 g/ton) in feed, 0-6 wks, control 7.56): 7.81 kg
N[C@@H](Cc1ccccc1)C(=O)O [L-phenylalanine] | 95 % of Control | 100 % of Control | 94 % of Control | 96 % of Control | 97 % of Control | – | – | – | – | –
O=CC(Cl)(Cl)Cl [chloral] | 88 % of Control | 80 % of Control | 110 % of Control | 96 % of Control | 110 % of Control | – | – | – | – | –
